Measured values taken from patent US20260176282A1, “BICYCLIC COMPOUNDS AS CDK INHIBITORS” (BEONE MEDICINES I GMBH, priority 2023, published 2026).
Read-outs that look alike come from different tables or passages of the source.

How the values were obtained:
CDK1/Cyclin B1 = CDK1/Cyclin B1 (Homo sapiens, UniProt P06493); assay: CDK1/Cyclin B1 TR-FRET biochemical assay (1 mM ATP); settings: 90 minutes reaction
Description: (§1) Compounds disclosed herein were tested for inhibition of CDK2/Cyclin E1 or CDK1/Cyclin B1 kinase in an assay based on the time-resolved fluorescence-resonance energy transfer (TR-FRET) methodology. The assay was carried out in 384-well low volume black plates in a reaction mixture containing CDK2/Cyclin E1 or CDK1/Cyclin B1, 1 mM ATP for CDK2/Cyclin E1 and CDK1/Cyclin B1, 0.15 μM Rb (Ser780)-biotin substrate and 0-10 μM compound in buffer containing 50 mM HEPES pH7.0, 0.02% NaN3, 0.01% BSA, 0.1 mM Orthovanadate, 50 mM MgCl2, 1 mM DTT and 0.005% Tween-20. The kinase was incubated with compound for 60 minutes at room temperature and the reaction was initiated by the addition of ATP and Rb (Ser780)-biotin substrate. After reaction at room temperature for 90 minutes, an equal volume of stop/detection solution was added according to the manufacture's instruction (Cisbio Bioassays). The stop/detection solution contained Streptavidin-XL665 and Anti-pRb (Ser780) mAb-Eu Cryptate in Detection buffer (Cisbio Bioassays). Plates were incubated at room temperature for 60 minutes, and the TR-FRET signals (ex337 nm, em665 nm/620 nm) were recorded on a PHERAstar FSX plate reader (BMG Labtech). The inhibition percentage of CDK2/Cyclin E1 or CDK1/Cyclin B1 kinase activity in presence of increasing concentrations of compounds was calculated based on the ratio of fluorescence at 665 nm to that at 620 nm. The IC50 for each compound was derived from fitting the data to the four-parameter logistic equation by Dotmatics.

CDK2/Cyclin E1 = CDK2/Cyclin E1 (Homo sapiens, UniProt P24941); assay: CDK2/Cyclin E1 TR-FRET biochemical assay (1 mM ATP); settings: 90 minutes reaction
Description: as §1

HEK-293 cells = assay: HEK-293 cell cytotoxicity detection (CellTiter-Glo); type: cell-based; settings: incubation of 72 h, CellTiter-Glo luminescence
Description: HEK-293 cells were treated with compounds diluted in 0.4% DMSO, dilution was done according to the following protocol: (1) making 250× stock solution in DMSO from 10 mM by 4-fold dilution, total 8 doses were included; (2) making 2 solution in cell culture medium by transferring 1 μl 250× stock solution into 124 μl medium; (3) adding 50 μl of 2× solution to cells for incubation of 72 h.
25 μl of the CellTiter-Glo® Reagent [(PromegaCat #G9242)] was added to each well in the 96-well plate. The contents were mixed for 2 minutes on an orbital shaker to induce cell lysis. The plate was then allowed to incubate at room temperature for 10 minutes to stabilize luminescent signal. Luminescence was recorded on BMG PheraStar with luminescence protocol.
The IC50 value of a compound can be obtained by fitting the following equation: […]
Wherein, X and Y are known values, and IC50, Hillslope, Top and Bottom are the parameters obtained by fitting with software. Y is the inhibition percentage (calculated from the equation), X is the concentration of the compound; IC50 is the concentration of the compound when the 50% inhibition is reached. The smaller the IC50 value is, the stronger the inhibitory ability of the compound is. Vice versa, the higher the IC50 value is, the weaker the ability the inhibitory ability of the compound is; Hillslope represents the slope of the fitted curve, generally around 1*; Bottom represents the minimum value of the curve obtained by data fitting, which is generally 0%±20%; Top represents the maximum value of the curve obtained by data fitting, which is generally 100%±20%. The experimental data were fitted by calculating and analyzing with Dotmatics data analysis software.

CDK1/Cyclin B1, sequence (P06493 whole entry): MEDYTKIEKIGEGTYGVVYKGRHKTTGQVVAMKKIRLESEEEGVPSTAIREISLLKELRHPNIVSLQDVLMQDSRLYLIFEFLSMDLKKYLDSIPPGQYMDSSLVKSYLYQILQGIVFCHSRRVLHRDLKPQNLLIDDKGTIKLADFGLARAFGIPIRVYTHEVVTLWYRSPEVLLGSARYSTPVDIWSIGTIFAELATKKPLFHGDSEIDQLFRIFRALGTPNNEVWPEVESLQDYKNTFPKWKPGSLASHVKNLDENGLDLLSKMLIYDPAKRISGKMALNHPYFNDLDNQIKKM
CDK1/Cyclin B1, sequence (P14635 whole entry partner): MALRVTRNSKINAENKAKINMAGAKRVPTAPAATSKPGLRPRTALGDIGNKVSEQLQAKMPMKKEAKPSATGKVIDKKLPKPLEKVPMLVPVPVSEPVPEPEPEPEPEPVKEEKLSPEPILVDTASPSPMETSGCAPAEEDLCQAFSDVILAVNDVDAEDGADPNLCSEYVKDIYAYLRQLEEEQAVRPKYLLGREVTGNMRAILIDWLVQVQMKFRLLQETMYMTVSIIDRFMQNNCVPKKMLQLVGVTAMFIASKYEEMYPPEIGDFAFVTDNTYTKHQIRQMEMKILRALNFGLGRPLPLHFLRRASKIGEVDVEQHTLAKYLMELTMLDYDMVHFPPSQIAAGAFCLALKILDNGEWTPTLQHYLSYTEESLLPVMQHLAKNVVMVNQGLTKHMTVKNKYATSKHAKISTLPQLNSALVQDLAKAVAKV

Row | Compound | IC50 (CDK1/Cyclin B1) [nM] | IC50 (CDK2/Cyclin E1) [nM] | IC50 (HEK-293 cells; Homo sapiens, HEK293, 72 h) [nM] | IC50 (HEK-293 cells; read-out: HEK293 IC50) [nM]
1 | Cc1cc2c(cc1Nc1cc([C@@H]3CC[C@H](OC(=O)NC(C)C)C3)[nH]n1)CS(=O)(=O)C2 (relative stereo) [Example 28, cis-3-(3-((6-methyl-2,2-dioxido-1,3-dihydrobenzo[c]thiophen-5-yl)amino)-1H-pyrazol-5-yl)cyclopentyl isopropylcarbamate] | 2900 | 9.4 | > 10000 | –
2 | O=C(NCC(F)(F)F)O[C@H]1CC[C@@H](c2cc(Nc3ccc4c(c3F)CS(=O)(=O)C4)n[nH]2)C1 (relative stereo) [Example 22, cis-3-(3-((4-fluoro-2,2-dioxido-1,3-dihydrobenzo[c]thiophen-5-yl)amino)-1H-pyrazol-5-yl)cyclopentyl (2,2,2-trifluoroethyl)carbamate] | 1050 | 4.5 | > 10000 | –
3 | O=C(NCCC(F)(F)F)O[C@H]1CC[C@@H](c2cc(Nc3ccc4c(c3F)CS(=O)(=O)C4)n[nH]2)C1 (relative stereo) [Example 16, cis-3-(3-((4-fluoro-2,2-dioxido-1,3-dihydrobenzo[c]thiophen-5-yl)amino)-1H-pyrazol-5-yl)cyclopentyl (3,3,3-trifluoropropyl)carbamate] | 155 | 0.7 | 687 | –
4 | CC(C)NC(=O)O[C@H]1CC[C@@H](c2cc(Nc3ccc4c(c3F)C[S+]([O-])C4)n[nH]2)C1 (relative stereo) [Example 31, cis-3-(3-((4-fluoro-2-oxido-1,3-dihydrobenzo[c]thiophen-5-yl)amino)-1H-pyrazol-5-yl)cyclopentyl isopropylcarbamate] | 3360 | 5.3 | 1570 | –
5 | C[C@]1(O)CC[C@H](NC(=O)OC2CCC(c3cc(Nc4ccc5c(c4F)CS(=O)(=O)C5)n[nH]3)C2)CC1 (stereo partly drawn) [Example 34, cis-3-(3-((4-fluoro-2,2-dioxido-1,3-dihydrobenzo[c]thiophen-5-yl)amino)-1H-pyrazol-5-yl)cyclopentyl ((1r,4r)-4-hydroxy-4-methylcyclohexyl)carbamate] | 1180 | 1.1 | 1430 | –
6 | CC(C)(CO)NC(=O)O[C@H]1CC[C@@H](c2cc(Nc3ccc4c(c3F)CS(=O)(=O)C4)n[nH]2)C1 (relative stereo) [Example 19, cis-3-(3-((4-fluoro-2,2-dioxido-1,3-dihydrobenzo[c]thiophen-5-yl)amino)-1H-pyrazol-5-yl)cyclopentyl (1-hydroxy-2-methylpropan-2-yl)carbamate] | 181 | 0.8 | 201 | –
7 | CCN(C)C(=O)O[C@H]1CC[C@@H](c2cc(Nc3ccc4c(c3F)CS(=O)(=O)C4)n[nH]2)C1 (relative stereo) [Example 32, cis-3-(3-((4-fluoro-2,2-dioxido-1,3-dihydrobenzo[c]thiophen-5-yl)amino)-1H-pyrazol-5-yl)cyclopentyl ethyl(methyl)carbamate] | 493 | 4.2 | > 10000 | –
8 | O=C(NC1CCC1)O[C@H]1CC[C@@H](c2cc(Nc3ccc4c(c3F)CS(=O)(=O)C4)n[nH]2)C1 (relative stereo) [Example 12, cis-3-(3-((4-fluoro-2,2-dioxido-1,3-dihydrobenzo[c]thiophen-5-yl)amino)-1H-pyrazol-5-yl)cyclopentyl cyclobutylcarbamate] | 609 | 1.2 | 499 | –
9 | O=C(N[C@H]1CC[C@H](O)CC1)OC1CCC(c2cc(Nc3ccc4c(c3F)CS(=O)(=O)C4)n[nH]2)C1 (stereo partly drawn) [Example 26, cis-3-(3-((4-fluoro-2,2-dioxido-1,3-dihydrobenzo[c]thiophen-5-yl)amino)-1H-pyrazol-5-yl)cyclopentyl ((1r,4r)-4-hydroxycyclohexyl)carbamate] | 376 | 1.5 | 998 | –

Now from value to compound, other results behind:

Row | IC50 (CDK1/Cyclin B1) [nM] | IC50 (CDK2/Cyclin E1) [nM] | Compound | IC50 (HEK-293 cells; Homo sapiens, HEK293, 72 h) [nM] | IC50 (HEK-293 cells; read-out: HEK293 IC50) [nM]
10 | 1300 | 5.2 | CCNC(=O)OC1CCC(c2cc(Nc3ccc4c(c3F)CS(=O)(=O)C4)n[nH]2)C1 (single isomer, unassigned) [Example 18a, cis-3-(3-((4-fluoro-2,2-dioxido-1,3-dihydrobenzo[c]thiophen-5-yl)amino)-1H-pyrazol-5-yl)cyclopentyl ethylcarbamate] | – | > 10000
11 | 1090 | 1.9 | CC1(NC(=O)OC2CCC(c3cc(Nc4ccc5c(c4F)CS(=O)(=O)C5)n[nH]3)C2)COC1 (single isomer, unassigned) [Example 15a, cis-3-(3-((4-fluoro-2,2-dioxido-1,3-dihydrobenzo[c]thiophen-5-yl)amino)-1H-pyrazol-5-yl)cyclopentyl (3-methyloxetan-3-yl)carbamate] | > 10000 | –
12 | 505 | 2 | CC1(NC(=O)OC2CCC(c3cc(Nc4ccc5c(c4F)CS(=O)(=O)C5)n[nH]3)C2)COC1 (single isomer, unassigned) [Example 15b, cis-3-(3-((4-fluoro-2,2-dioxido-1,3-dihydrobenzo[c]thiophen-5-yl)amino)-1H-pyrazol-5-yl)cyclopentyl (3-methyloxetan-3-yl)carbamate] | – | 9900
13 | 353 | 0.6 | CC1(NC(=O)OC2CCC(c3cc(Nc4ccc5c(c4F)CS(=O)(=O)C5)n[nH]3)C2)CCOC1 (single isomer, unassigned) [Example 13b, cis-3-(3-((4-fluoro-2,2-dioxido-1,3-dihydrobenzo[c]thiophen-5-yl)amino)-1H-pyrazol-5-yl)cyclopentyl (3-methyltetrahydrofuran-3-yl)carbamate] | – | 559
14 | 555 | 5.2 | CCNC(=O)OC1CCC(c2cc(Nc3ccc4c(c3F)CS(=O)(=O)C4)n[nH]2)C1 (single isomer, unassigned) [Example 18b, cis-3-(3-((4-fluoro-2,2-dioxido-1,3-dihydrobenzo[c]thiophen-5-yl)amino)-1H-pyrazol-5-yl)cyclopentyl ethylcarbamate] | – | 522
15 | 493 | 0.5 | CC1(NC(=O)OC2CCC(c3cc(Nc4ccc5c(c4F)CS(=O)(=O)C5)n[nH]3)C2)CCOC1 (single isomer, unassigned) [Example 13a, cis-3-(3-((4-fluoro-2,2-dioxido-1,3-dihydrobenzo[c]thiophen-5-yl)amino)-1H-pyrazol-5-yl)cyclopentyl (3-methyltetrahydrofuran-3-yl)carbamate] | – | 2150
16 | 4730 | 17 | O=C(NC1CCOC1)OC1CCC(c2cc(Nc3ccc4c(c3F)CS(=O)(=O)C4)n[nH]2)C1 (single isomer, unassigned) [Example 24a, cis-3-(3-((4-fluoro-2,2-dioxido-1,3-dihydrobenzo[c]thiophen-5-yl)amino)-1H-pyrazol-5-yl)cyclopentyl (tetrahydrofuran-3-yl)carbamate] | > 10000 | –
17 | 7870 | 61 | O=C(NC1CCOC1)OC1CCC(c2cc(Nc3ccc4c(c3F)CS(=O)(=O)C4)n[nH]2)C1 (single isomer, unassigned) [Example 24b, cis-3-(3-((4-fluoro-2,2-dioxido-1,3-dihydrobenzo[c]thiophen-5-yl)amino)-1H-pyrazol-5-yl)cyclopentyl (tetrahydrofuran-3-yl)carbamate] | – | > 10000
18 | 322 | 0.9 | CC1(NC(=O)OC2CCC(c3cc(Nc4ccc5c(c4F)CS(=O)(=O)C5)n[nH]3)C2)CCOC1 (single isomer, unassigned) [Example 13d, cis-3-(3-((4-fluoro-2,2-dioxido-1,3-dihydrobenzo[c]thiophen-5-yl)amino)-1H-pyrazol-5-yl)cyclopentyl (3-methyltetrahydrofuran-3-yl)carbamate] | – | 4210
